Test results reported in patent US4348410A, “Cyclohexane carboxylic acid derivatives” (Nippon Chemiphar Co., Ltd., priority 1979, dated 1982).
Counter-ions that a name gives are not always drawn. Values belong to the molecule of their own block, whether it stands above or below them.

How the values were obtained:
chymotrypsin = chymotrypsin (Bos taurus, UniProt P00766); experiment: Inhibitory effects on chymotrypsin (hydrolysis of N-acetyl-L-tyrosine ethyl ester); type: biochemical; details: for Inhibition (%) Chymotrypsin: 37° C., 10 minutes, concentration not given
Procedure: The compounds of the formula (I) have excellent inhibitory effects on protease. The inhibitory effects were determined by the following methods: Inhibitory effects on the compounds of chymotrypsin were determined according to the method described by M. […] In particular, inhibitory effects of the compounds on hydrolysis of N-acetyl-L-tyrosine ethyl ester by chymotrypsin were examined (incubated at 37° C. for 10 minutes).

trypsin = target: T1, trypsin (Bos taurus, UniProt P00760); experiment: Inhibitory effects on trypsin (hydrolysis of p-tosylarginine methyl ester); type: biochemical; details: for Inhibition (%) Trypsin: 37° C., 10 minutes, concentration not given
T1 sequence (P00760 24-246): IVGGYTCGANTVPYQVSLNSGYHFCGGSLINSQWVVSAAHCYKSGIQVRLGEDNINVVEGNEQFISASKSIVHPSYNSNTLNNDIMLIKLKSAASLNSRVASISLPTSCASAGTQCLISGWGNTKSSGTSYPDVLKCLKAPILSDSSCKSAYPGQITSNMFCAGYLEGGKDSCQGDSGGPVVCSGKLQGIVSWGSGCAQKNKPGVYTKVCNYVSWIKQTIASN
Procedure: In particular, inhibitory effects of the compounds on hydrolysis of p-tosylarginine methyl ester by trypsin were examined (incubated at 37° C. for 10 minutes).

acetic acid ulcers = experiment: Acetic acid ulcers; type: in vivo, Male Sprague-Dawley strain rats; details: for Ulcer Grade 1 (number of rats): ulcer area 0-10 mm^2; for Ulcer Grade 2 (number of rats): ulcer area 11-20 mm^2; for Ulcer Grade 3 (number of rats): ulcer area 21-30 mm^2; for Ulcer Grade 4 (number of rats): ulcer area 31-40 mm^2; for Ulcer Grade 5 (number of rats): ulcer area >40 mm^2
Procedure: Male Sprague-Dawley strain rats, weighing about 200 g were used. Under ether anesthesia 10% acetic acid solution (0.05 ml) was injected carefully between the serous membrane and the muscle near the pylorus, and the abdomen was closed. Thereafter, the animals were maintained under conditions and administered 1 ml/100 g of each test drug dissolved or suspended in 0.5% carboxymethylcellulose solution p.o. daily×10 starting from the next day of the operation. On the 11th day, the rats were sacrificed under ether anesthesia, and the stomachs were removed. The area of the ulcer was measured and graded into 5 degrees as an ulcer index according to the following method: […]

urokinase = urokinase (Homo sapiens, UniProt P00749); experiment: Inhibitory effects on urokinase (hydrolysis of N-acetylglycyl lysine methyl ester); type: biochemical; details: for Inhibition (%) Urokinase: 37° C., 10 minutes, concentration not given; for inhibition at 100 µM: 0.1 mM, read-out: inhibited hydrolytic activity by urokinase
Procedure: The compounds of the formula (I) have excellent inhibitory effects on protease. The inhibitory effects were determined by the following methods: Inhibitory effects of the compounds on urokinase were determined according to the method described by A. J. Joeson et al (Throm. […]. 21, 259-272 (1969)). In particular, inhibitory effects of the compounds on hydrolysis of N-acetylglycyl lysine methyl ester by urokinase were determined (incubated at 37° C. for 10 minutes).

thrombin = thrombin (Bos taurus, UniProt P00735); experiment: Inhibitory effects on thrombin (hydrolysis of p-tosylarginine methyl ester); type: biochemical; details: for Inhibition (%) Thrombin: 37° C., 10 minutes, concentration not given
Procedure: The compounds of the formula (I) have excellent inhibitory effects on protease. The inhibitory effects were determined by the following methods:
Inhibitory effects of the compounds on thrombin were determined according to the method described by M. Muramatsu et al (The Journal of Biochemistry, Volume 65 (1), 17 (1969)). In particular, inhibitory effects of the compounds on hydrolysis of p-tosylarginine methyl ester by thrombin were examined (incubated at 37° C. for 10 minutes).

Shay ulcers = Shay ulcers (pylorus ligation); type: in vivo, Male Sprague-Dawley strain rats; details: for Ulcer Grade 0 (number of rats): 0=no lesion; for Ulcer Grade 1 (number of rats): 1=hemorrhagic suffusion; for Ulcer Grade 2 (number of rats): 2=1-5 small ulcers (<3 mm); for Ulcer Grade 3 (number of rats): 3=many small ulcers (more than 5) or 1 ulcer of marked size; for Ulcer Grade 4 (number of rats): 4=many ulcers of marked size; for Ulcer Grade 5 (number of rats): 5=perforated ulcer
Procedure: The rats were sacrificed 18 hours later by an overdose of ether and the stomach removed. The stomach was incised along the greater curvature and the surface area of each lesion in forestomach was measured by the naked eye. […] 4=many ulcers of marked size 5=perforated ulcer The test drugs were given intraperitoneally, immediately after pylorus ligation.

gastric secretion = experiment: Influence to the gastric secretion (pylorus ligation); type: in vivo, Male Sprague-Dawley strain rats; details: 12.5 mg/kg i.p.
Procedure: Male Sprague-Dawley strain rats, weighing 160-180 g were deprived of food but allowed free access to water for 20 hours prior to experiment. […] The test drug was given intraperitoneally immediately after pylorus ligation. The rats were sacrificed 3, 6 and 12 hours later and the stomachs removed. The gastric juice was collected and analyzed for volume. Then the gastric juice was centrifuged at 1300 g for 10 minutes at room temperature to give the supernatant. The total acidity and peptic activity of the supernatant were determined. Total acidity was determined by titrating with 0.01 N NaOH. […] Total acidity is shown as the titration volume (ml) and peptic activity is shown as the corresponding weight (mg) to crystal pepsin.

Compound: COc1cc(C=O)ccc1OC(=O)[C@H]1CC[C@H](CNC(=N)N)CC1 [Compound 2]
Inhibition (%) Chymotrypsin (chymotrypsin): 100%
Inhibition (%) Trypsin (trypsin): 61%
Ulcer Grade 1 (number of rats) (acetic acid ulcers; 125 mg/kg p.o. daily×10): 9
Ulcer Grade 2 (number of rats) (acetic acid ulcers; 125 mg/kg p.o. daily×10): 1
Ulcer Grade 3 (number of rats) (acetic acid ulcers; 125 mg/kg p.o. daily×10): 2
Ulcer Grade 4 (number of rats) (acetic acid ulcers; 125 mg/kg p.o. daily×10): 2
Ulcer Grade 5 (number of rats) (acetic acid ulcers; 125 mg/kg p.o. daily×10): 1
Ulcer Grade 1 (number of rats) (acetic acid ulcers; 250 mg/kg p.o. daily×10): 14
Ulcer Grade 2 (number of rats) (acetic acid ulcers; 250 mg/kg p.o. daily×10): 0
Ulcer Grade 3 (number of rats) (acetic acid ulcers; 250 mg/kg p.o. daily×10): 3
Ulcer Grade 4 (number of rats) (acetic acid ulcers; 250 mg/kg p.o. daily×10): 1
Ulcer Grade 5 (number of rats) (acetic acid ulcers; 250 mg/kg p.o. daily×10): 0
Ulcer Grade 1 (number of rats) (acetic acid ulcers; 500 mg/kg p.o. daily×10): 12
Ulcer Grade 2 (number of rats) (acetic acid ulcers; 500 mg/kg p.o. daily×10): 3
Ulcer Grade 3 (number of rats) (acetic acid ulcers; 500 mg/kg p.o. daily×10): 2
Ulcer Grade 4 (number of rats) (acetic acid ulcers; 500 mg/kg p.o. daily×10): 0
Ulcer Grade 5 (number of rats) (acetic acid ulcers; 500 mg/kg p.o. daily×10): 1
Inhibition (%) Urokinase (urokinase): 72%
Inhibition (%) Thrombin (thrombin): 51%

Compound: CCOC(=O)CCc1ccc(OC(=O)[C@H]2CC[C@H](CNC(=N)N)CC2)cc1 [Compound 8]
Ulcer Grade 0 (number of rats) (Shay ulcers; 200 mg/kg i.p.): 4
Ulcer Grade 1 (number of rats) (Shay ulcers; 200 mg/kg i.p.): 2
Ulcer Grade 2 (number of rats) (Shay ulcers; 200 mg/kg i.p.): 2
Ulcer Grade 3 (number of rats) (Shay ulcers; 200 mg/kg i.p.): 1
Ulcer Grade 4 (number of rats) (Shay ulcers; 200 mg/kg i.p.): 1
Ulcer Grade 5 (number of rats) (Shay ulcers; 200 mg/kg i.p.): 0
Inhibition (%) Chymotrypsin (chymotrypsin): 20%
Inhibition (%) Trypsin (trypsin): 51%
Ulcer Grade 1 (number of rats) (acetic acid ulcers; 300 mg/kg p.o. daily×10): 4
Ulcer Grade 2 (number of rats) (acetic acid ulcers; 300 mg/kg p.o. daily×10): 3
Ulcer Grade 3 (number of rats) (acetic acid ulcers; 300 mg/kg p.o. daily×10): 1
Ulcer Grade 4 (number of rats) (acetic acid ulcers; 300 mg/kg p.o. daily×10): 0
Ulcer Grade 5 (number of rats) (acetic acid ulcers; 300 mg/kg p.o. daily×10): 0
Inhibition (%) Urokinase (urokinase): 55%
Inhibition (%) Thrombin (thrombin): 43%

Compound: CCOC(=O)c1ccccc1OC(=O)[C@H]1CC[C@H](CNC(=N)N)CC1 [Compound 9]
Inhibition (%) Chymotrypsin (chymotrypsin): 60%
Inhibition (%) Trypsin (trypsin): 28%
Ulcer Grade 1 (number of rats) (acetic acid ulcers; 125 mg/kg p.o. daily×10): 11
Ulcer Grade 2 (number of rats) (acetic acid ulcers; 125 mg/kg p.o. daily×10): 3
Ulcer Grade 3 (number of rats) (acetic acid ulcers; 125 mg/kg p.o. daily×10): 1
Ulcer Grade 4 (number of rats) (acetic acid ulcers; 125 mg/kg p.o. daily×10): 1
Ulcer Grade 5 (number of rats) (acetic acid ulcers; 125 mg/kg p.o. daily×10): 1
Ulcer Grade 1 (number of rats) (acetic acid ulcers; 250 mg/kg p.o. daily×10): 11
Ulcer Grade 2 (number of rats) (acetic acid ulcers; 250 mg/kg p.o. daily×10): 2
Ulcer Grade 3 (number of rats) (acetic acid ulcers; 250 mg/kg p.o. daily×10): 1
Ulcer Grade 4 (number of rats) (acetic acid ulcers; 250 mg/kg p.o. daily×10): 0
Ulcer Grade 5 (number of rats) (acetic acid ulcers; 250 mg/kg p.o. daily×10): 0
Ulcer Grade 1 (number of rats) (acetic acid ulcers; 500 mg/kg p.o. daily×10): 12
Ulcer Grade 2 (number of rats) (acetic acid ulcers; 500 mg/kg p.o. daily×10): 2
Ulcer Grade 3 (number of rats) (acetic acid ulcers; 500 mg/kg p.o. daily×10): 1
Ulcer Grade 4 (number of rats) (acetic acid ulcers; 500 mg/kg p.o. daily×10): 0
Ulcer Grade 5 (number of rats) (acetic acid ulcers; 500 mg/kg p.o. daily×10): 0
Inhibition (%) Urokinase (urokinase): 50%
Inhibition (%) Thrombin (thrombin): 29%

Compound: N=C(N)NC[C@H]1CC[C@H](C(=O)Oc2ccccc2C(=O)O)CC1 [Compound 10]
Ulcer Grade 1 (number of rats) (acetic acid ulcers; 300 mg/kg p.o. daily×10): 4
Ulcer Grade 2 (number of rats) (acetic acid ulcers; 300 mg/kg p.o. daily×10): 2
Ulcer Grade 3 (number of rats) (acetic acid ulcers; 300 mg/kg p.o. daily×10): 1
Ulcer Grade 4 (number of rats) (acetic acid ulcers; 300 mg/kg p.o. daily×10): 0
Ulcer Grade 5 (number of rats) (acetic acid ulcers; 300 mg/kg p.o. daily×10): 2
Ulcer Grade 1 (number of rats) (acetic acid ulcers; 500 mg/kg p.o. daily×10): 4
Ulcer Grade 2 (number of rats) (acetic acid ulcers; 500 mg/kg p.o. daily×10): 3
Ulcer Grade 3 (number of rats) (acetic acid ulcers; 500 mg/kg p.o. daily×10): 1
Ulcer Grade 4 (number of rats) (acetic acid ulcers; 500 mg/kg p.o. daily×10): 0
Ulcer Grade 5 (number of rats) (acetic acid ulcers; 500 mg/kg p.o. daily×10): 0

Compound: CN1[C@@H]2CC[C@H]1C[C@@H](OC(=O)C(CO)c1ccccc1)C2 (stereo partly shown) [Compound B, atropine sulfate, reference compound]
Ulcer Grade 0 (number of rats) (Shay ulcers; 12.5 mg/kg i.p.): 2
Ulcer Grade 1 (number of rats) (Shay ulcers; 12.5 mg/kg i.p.): 1
Ulcer Grade 2 (number of rats) (Shay ulcers; 12.5 mg/kg i.p.): 0
Ulcer Grade 3 (number of rats) (Shay ulcers; 12.5 mg/kg i.p.): 1
Ulcer Grade 4 (number of rats) (Shay ulcers; 12.5 mg/kg i.p.): 3
Ulcer Grade 5 (number of rats) (Shay ulcers; 12.5 mg/kg i.p.): 3
Titratable Pepsin Output (gastric secretion; 3 hours): 3.3 ± 0.9 mg
Titratable Pepsin Output % change (gastric secretion; 3 hours): 43.1%
Titratable Pepsin Output (gastric secretion; 6 hours): 9.7 ± 1.6 mg
Titratable Pepsin Output % change (gastric secretion; 6 hours): 55.3%
Titratable Pepsin Output (gastric secretion; 12 hours): 34.2 ± 1.4 mg
Titratable Pepsin Output % change (gastric secretion; 12 hours): 41.0%

Compound: Cc1c(C)c2c(c(C)c1OC(=O)[C@H]1CC[C@H](CNC(=N)N)CC1)CCC(C)(CCCC(C)CCCC(C)CCCC(C)C)O2 (stereo partly shown) [Example 1]
inhibition at 100 µM (trypsin; 0.1 mM, read-out: inhibited hydrolytic activity by trypsin): ~50%
inhibition at 100 µM (thrombin; 0.1 mM, read-out: inhibited hydrolytic activity by thrombin): ~50%

Results, then the molecule that gave them:

Inhibition (%) Chymotrypsin (chymotrypsin): 28%
Inhibition (%) Trypsin (trypsin): 22%
Inhibition (%) Urokinase (urokinase): 84%
Inhibition (%) Thrombin (thrombin): 35%
Compound: CCOc1ccccc1OC(=O)[C@H]1CC[C@H](CNC(=N)N)CC1 [Compound 4]

Inhibition (%) Chymotrypsin (chymotrypsin): 90%
Inhibition (%) Trypsin (trypsin): 38%
Inhibition (%) Urokinase (urokinase): 35%
Inhibition (%) Thrombin (thrombin): 34%
Compound: N=C(N)NC[C@H]1CC[C@H](C(=O)Oc2ccccc2C(=O)Oc2ccccc2)CC1 [Compound 5]

Inhibition (%) Chymotrypsin (chymotrypsin): 70%
Inhibition (%) Trypsin (trypsin): 25%
Inhibition (%) Urokinase (urokinase): 50%
Inhibition (%) Thrombin (thrombin): 39%
Compound: CCOC(=O)c1ccc(OC(=O)[C@H]2CC[C@H](CNC(=N)N)CC2)cc1 [Compound 6]

Inhibition (%) Chymotrypsin (chymotrypsin): 70%
Inhibition (%) Trypsin (trypsin): 23%
Inhibition (%) Urokinase (urokinase): 67%
Inhibition (%) Thrombin (thrombin): 32%
Compound: Cl.N=C(N)NC[C@H]1CC[C@H](C(=O)Oc2cccnc2)CC1 [Compound 7, 3pyridyl trans4-guanidinomethylcyclohexanecarboxylate hydrochloride]

inhibition at 100 µM (urokinase): 56%
Compound: N=C(N)NC[C@H]1CC[C@H](C(=O)Oc2ccccc2C=O)CC1 [Example 19]

inhibition at 100 µM (urokinase): 50%
Compound: COc1ccccc1OC(=O)[C@H]1CC[C@H](CNC(=N)N)CC1 [Example 20]

inhibition at 100 µM (urokinase): 52%
Compound: COc1ccc(OC(=O)[C@H]2CC[C@H](CNC(=N)N)CC2)cc1 [Example 21]

inhibition at 50 µM (chymotrypsin; 0.05 mM, read-out: inhibited hydrolytic activity by chymotrypsin): 50%
Compound: CC(=O)c1ccccc1OC(=O)[C@H]1CC[C@H](CNC(=N)N)CC1 [Example 23, 2'-Acetylphenyl trans-4-guanidomethycylohexanecarboxylate hydrochloride]
